Measurements published in US20120316199A1, “COMPOSITIONS AND METHODS FOR TREATING, CONTROLLING, REDUCING, OR AMELIORATING INFLAMMATORY PAIN” (priority 2011, published 2012).

System: intraocular pressure (IOP)
Assay: Intraocular pressure in New Zealand White rabbits, topical dosing four times daily
Format: in vivo
Conditions: untreated left eyes
Description: On Days 1-31, animals received daily topical doses of the appropriate test article into the right eye. Animals were dosed four times per day, with doses administered 2 hours apart. Doses were administered using a calibrated 50-μL pipette. The eyelids were held close for 10 seconds immediately following dosing. The time of each dose administration was recorded.
Intraocular pressure (“IOP”) was determined for both eyes of each animal on Days 3, 5, 10, 12, 16, 18, 22, 24, 26, 30, and 32. IOP was evaluated with a Medtronic Solan, Model 30 classic pneumatonometer. Proparacaine hydrochloride 0.5% (1 drop) was delivered to each eye prior to IOP measurement. IOP was measured on Monday. Wednesday, and Friday of each week. A two-point diurnal curve was established: IOP was recorded at 8 a.m. and 12 p.m. on Day 3, and at 8 a.m. and 2 p.m. on later days, with a ±1 hour range for each of these times. The time of the measurements was recorded.
Descriptive statistics were prepared for IOP data of each treatment group (left and right eyes separately) at each measurement interval. The statistics included the number of observations (“N”) mean, standard deviation (“STD”), and standard error (“SEM”). Statistical analyses were conducted on IOP results using Statistical Analysis Systems (SAS Institute. Inc., Cary, N.C. V8.0). Parameters were evaluated using analysis of variance/GLM Procedure followed by Tukey's Standardized Range Test (Tukey, 1985) for post hoc comparisons of group means. The level of significance was set at a probability of p<0.05 for all statistical procedures. Group IOP means were compared at each interval, with left and right eyes compared separately.

## Cc1ccc2c(NC[C@](O)(CC(C)(C)c3cc(F)cc4c3OCC4)C(F)(F)F)cccc2n1 [BOL-303242-X, mapracorat]
A.M. readings, Day 16, 1 mg/g (Group D)
  Intraocular Pressure, MEAN: 21.6 mmHg
A.M. readings, Day 16, 5 mg/g (Group C)
  Intraocular Pressure, MEAN: 23.4 mmHg
A.M. readings, Day 16, 10 mg/g (Group B)
  Intraocular Pressure, MEAN: 22.9 mmHg
A.M. readings, Day 18, 1 mg/g (Group D)
  Intraocular Pressure, MEAN: 23.3 mmHg
A.M. readings, Day 18, 5 mg/g (Group C)
  Intraocular Pressure, MEAN: 21.9 mmHg
A.M. readings, Day 18, 10 mg/g (Group B)
  Intraocular Pressure, MEAN: 21.2 mmHg
A.M. readings, Day 22, 1 mg/g (Group D)
  Intraocular Pressure, MEAN: 22.4 mmHg
A.M. readings, Day 22, 5 mg/g (Group C)
  Intraocular Pressure, MEAN: 21.6 mmHg
A.M. readings, Day 22, 10 mg/g (Group B)
  Intraocular Pressure, MEAN: 21.8 mmHg
A.M. readings, Day 24, 1 mg/g (Group D)
  Intraocular Pressure, MEAN: 22.4 mmHg
A.M. readings, Day 24, 5 mg/g (Group C)
  Intraocular Pressure, MEAN: 22.1 mmHg
A.M. readings, Day 24, 10 mg/g (Group B)
  Intraocular Pressure, MEAN: 20.2 mmHg
A.M. readings, Day 26, 1 mg/g (Group D)
  Intraocular Pressure, MEAN: 22.9 mmHg
A.M. readings, Day 26, 5 mg/g (Group C)
  Intraocular Pressure, MEAN: 21.7 mmHg
A.M. readings, Day 26, 10 mg/g (Group B)
  Intraocular Pressure, MEAN: 21.7 mmHg
A.M. readings, Day 30, 1 mg/g (Group D)
  Intraocular Pressure, MEAN: 23.4 mmHg
A.M. readings, Day 30, 5 mg/g (Group C)
  Intraocular Pressure, MEAN: 22.6 mmHg
A.M. readings, Day 30, 10 mg/g (Group B)
  Intraocular Pressure, MEAN: 22.7 mmHg
A.M. readings, Day 32, 1 mg/g (Group D)
  Intraocular Pressure, MEAN: 24.1 mmHg
A.M. readings, Day 32, 5 mg/g (Group C)
  Intraocular Pressure, MEAN: 23.1 mmHg
A.M. readings, Day 32, 10 mg/g (Group B)
  Intraocular Pressure, MEAN: 22.9 mmHg
A.M. readings, Pre-Study, 1 mg/g (Group D)
  Intraocular Pressure, MEAN: 23.9 mmHg
A.M. readings, Pre-Study, 5 mg/g (Group C)
  Intraocular Pressure, MEAN: 24.2 mmHg
A.M. readings, Pre-Study, 10 mg/g (Group B)
  Intraocular Pressure, MEAN: 23.8 mmHg
P.M. readings, Day 3, 1 mg/g (Group D)
  Intraocular Pressure, MEAN: 25.0 mmHg
P.M. readings, Day 3, 5 mg/g (Group C)
  Intraocular Pressure, MEAN: 23.9 mmHg
P.M. readings, Day 3, 10 mg/g (Group B)
  Intraocular Pressure, MEAN: 23.3 mmHg
P.M. readings, Day 5, 1 mg/g (Group D)
  Intraocular Pressure, MEAN: 24.7 mmHg
P.M. readings, Day 5, 5 mg/g (Group C)
  Intraocular Pressure, MEAN: 24.8 mmHg
P.M. readings, Day 5, 10 mg/g (Group B)
  Intraocular Pressure, MEAN: 25.2 mmHg
P.M. readings, Day 10, 1 mg/g (Group D)
  Intraocular Pressure, MEAN: 24.9 mmHg
P.M. readings, Day 10, 5 mg/g (Group C)
  Intraocular Pressure, MEAN: 24.6 mmHg
P.M. readings, Day 10, 10 mg/g (Group B)
  Intraocular Pressure, MEAN: 23.5 mmHg
P.M. readings, Day 12, 1 mg/g (Group D)
  Intraocular Pressure, MEAN: 23.7 mmHg
P.M. readings, Day 12, 5 mg/g (Group C)
  Intraocular Pressure, MEAN: 23.3 mmHg
P.M. readings, Day 12, 10 mg/g (Group B)
  Intraocular Pressure, MEAN: 24.1 mmHg
P.M. readings, Day 16, 1 mg/g (Group D)
  Intraocular Pressure, MEAN: 21.9 mmHg
P.M. readings, Day 16, 5 mg/g (Group C)
  Intraocular Pressure, MEAN: 20.4 mmHg
P.M. readings, Day 16, 10 mg/g (Group B)
  Intraocular Pressure, MEAN: 21.4 mmHg
P.M. readings, Day 18, 1 mg/g (Group D)
  Intraocular Pressure, MEAN: 22.7 mmHg
P.M. readings, Day 18, 5 mg/g (Group C)
  Intraocular Pressure, MEAN: 21.9 mmHg
P.M. readings, Day 18, 10 mg/g (Group B)
  Intraocular Pressure, MEAN: 22.1 mmHg
P.M. readings, Day 22, 1 mg/g (Group D)
  Intraocular Pressure, MEAN: 22.1 mmHg
P.M. readings, Day 22, 5 mg/g (Group C)
  Intraocular Pressure, MEAN: 22.1 mmHg
P.M. readings, Day 22, 10 mg/g (Group B)
  Intraocular Pressure, MEAN: 22.6 mmHg
P.M. readings, Day 24, 1 mg/g (Group D)
  Intraocular Pressure, MEAN: 22.9 mmHg
P.M. readings, Day 24, 5 mg/g (Group C)
  Intraocular Pressure, MEAN: 22.2 mmHg
P.M. readings, Day 24, 10 mg/g (Group B)
  Intraocular Pressure, MEAN: 22.8 mmHg
P.M. readings, Day 26, 1 mg/g (Group D)
  Intraocular Pressure, MEAN: 22.1 mmHg
P.M. readings, Day 26, 5 mg/g (Group C)
  Intraocular Pressure, MEAN: 22.3 mmHg
P.M. readings, Day 26, 10 mg/g (Group B)
  Intraocular Pressure, MEAN: 21.4 mmHg
P.M. readings, Day 30, 10 mg/g (Group B)
  Intraocular Pressure, MEAN: 21.7 mmHg
